Each structure is given as a SMILES string.

The nature of the first data set: in vitro. The settings on record: human, hela cells, % viability.
As to `CCOC(=O)c1c(NC(=O)CSc2ncnc3sc(C)c(C)c23)sc(C)c1C` [CBK266440], the viability – broadly, a read-out of living cells in per cent, often relative to untreated cells – at 28.5 h, 10 µM worked out at 118%.
Same read-out and setting: the same measure for `CCc1nc2c(OCCOC)cccn2c1N(CCOC)C(C)=O` [CBK147845]: 97.4%.
Take `Cc1onc(-c2ccccc2Cl)c1C(=O)N(Cc1nc(-c2ccccc2)no1)C(C)C` [CBK269289]: the viability at 28.5 h, 10 µM was found to be 113%.
On to `Cc1cc(C)cc(C(=O)NC(=S)Nc2sc(C)c(C)c2C#N)c1` [CBK267089], for which the viability at 28.5 h, 10 µM worked out at 92.1%.
Still for that read-out and setting: for `Cc1nn(CC(=O)N2CCCC(C)C2)c(=O)c2cc3ccsc3n12` (stereo not drawn) [CBK284041] the value was 81.7%; for `CNC(=O)c1ccc(-c2cccc(OC(F)(F)F)c2)nc1NCCOC` [CBK106000], 96.4%; for `COCCN(C(=O)c1[nH]c2c(F)cccc2c1C)C1CCN(C)CC1` [CBK307386], 95%.
As for `CC(=O)Nc1ccc(-c2csc(NC(=O)NS(=O)(=O)c3ccc(C)cc3)n2)cc1` [CBK297084], the viability at 28.5 h, 10 µM was 107%.
On the same count and under the same terms, for `O=C(CCCN1CCN(C(=O)NC2CCC(O)CC2)CC1)c1ccc(F)cc1` (stereo not drawn) [CBK025156C] the value was 97%; for `COCCc1nc(C2CCN(C)CC2)n(Cc2ccccc2C)n1` [CBK307449], 115%; for `c1cncc(-c2noc(-c3cc(C4CC4)[nH]n3)n2)c1` [CBK287973], 94.7%.
The same measure, in the same setting: the same measure for `COc1ccc(Cn2c(=O)n(C(=O)CCc3cccc(OC)c3)c3ccccc32)cc1` [CBK106557]: 113%.
Turning to `O=C(NCCc1cccs1)Nc1cccc(CN2CCCCC2)c1` [CBK306882], the viability at 28.5 h, 10 µM came out at 96.1%.
The same measure, in the same setting: the same measure for `O=C(COc1ccc(Br)cc1C(=O)O)Nc1ccc(F)cc1` [CBK286671]: 92%; for `O=C(c1cccnc1)C1CCN(C(=O)Cc2ccc(Cl)cc2)CC1` [CBK283813]: 80.4%.
The same measure, in the same setting: for `O=C(NNc1ccc([N+](=O)[O-])cc1)c1cccs1` [CBK261709] the value was 92.1%; for `CC(C)Nc1nccnc1OC1CCNC1` (stereo not drawn) [CBK115279], 92.5%; for `O=C(Nc1ccc(-c2c3ccccc3c(-c3ccc(NC(=O)c4cccc5ccccc45)cc3)c3ccccc23)cc1)c1cccc2ccccc12` [CBK261164], 93.6%.
On to `CC(C)(C)OC(=O)Nc1ccc2c(ccn2CCN2CCOCC2)c1` [CBK161767], for which the viability at 28.5 h, 10 µM is 95%.
On to `O=C(NCc1ccc(Cl)cc1)c1cn(-c2ccccc2)c2ccc(CN3CCOCC3)cc2c1=O` [CBK018481], for which the viability at 28.5 h, 10 µM stood at 98.7%.
On the same count and under the same terms, for `CC1(C)CCCN(Cc2nnnn2-c2ccc(S(C)(=O)=O)cc2)CC1` [CBK306177] the value was 81.8%.
On the same count and under the same terms, the same measure for `O=[N+]([O-])c1ccc(-c2nc(NCc3cccnc3)c3ccccc3n2)cc1` [CBK264788]: 100%; for `O=C(c1ccc(Br)o1)N1CCc2ccc(S(=O)(=O)N3CCOCC3)cc21` [CBK028953]: 100%; for `OCC1(CNc2ncc(F)c(N3CCCC3)n2)CCCC1` [CBK307397]: 103%.
Turning to `CN1CCC(C(=O)Nc2cccc(Cn3cccn3)c2)C1` (stereo not drawn) [CBK281991], the viability at 28.5 h, 10 µM turned out to be 100%.
As for `Cc1ccc(C(=O)NCCN2CCOCC2)c(N2CCOCC2)n1` [CBK106201], the viability at 28.5 h, 10 µM stood at 87%.
The same measure, in the same setting: for `COc1ccccc1NC(=O)CSc1nc(O)c2c(C)cc(C)nc2n1` [CBK266095] the value was 91.8%; for `N/C(=N\OC(=O)COc1ccc2ccccc2c1)c1ccncc1` [CBK263737], 89.1%.
Same read-out and setting: the same measure for `Cc1c(C)n2c(SCC(=O)N3CCCC3)nnc2[nH]c1=O` [CBK287686]: 99.4%; for `COc1ccccc1NS(=O)(=O)c1ccc2c(c1)C1C=CCC1C(c1ccc(C(=O)O)cc1)N2` (stereo not drawn) [CBK268903]: 101%; for `O=S(=O)(NCCSCc1ccco1)c1ccc(Cl)cc1` [CBK232206]: 85.6%.
For `O=[N+]([O-])c1ccc(CSc2nnc(-c3cnccn3)n2Cc2ccco2)cc1` [CBK267585], the viability at 28.5 h, 10 µM turned out to be 100%.
Still for that read-out and setting: for `N#C/C(=C\c1ccc(N2CCOCC2)cc1)c1nc2ncc(Br)cc2[nH]1` [CBK266294] the value was 89.4%; for `CCCn1cnc2c1CN(C(C)=O)[C@H](C(=O)OC)C2` [CBK288995], 101%.
Still for that read-out and setting: for `CCc1nnc(NCC2CCCCC2)s1` [CBK075044] the value was 88.1%.
On the same count and under the same terms, the same measure for `O=C(NCC1(c2ccccc2)CCCC1)c1ccc(NC(=O)C2COc3ccccc3O2)cc1` (stereo not drawn) [CBK266558]: 97.9%.
Regarding `Cc1nn(C)c(Cl)c1CN1CCOC(c2ccccc2)C1` (stereo not drawn) [CBK305244], the viability at 28.5 h, 10 µM stood at 83.2%.
On the same count and under the same terms, for `O=C(Nc1ccc(S(=O)(=O)Nc2nccc(C3Cc4ccccc4C(=O)O3)n2)cc1)c1ccccc1` (stereo not drawn) [CBK267306] the value was 105%.
The same measure, in the same setting: for `c1ccc(N2CCN(C3CCN(Cc4ccccn4)CC3)CC2)cc1` [CBK264684G] the value was 110%.
On the same count and under the same terms, for `C/C(=N\NC(=N)N)C(F)(F)F` [CBK023019G] the value was 90.1%.
In the case of `Cc1nnc(SCC(=O)NCCc2ccccc2)nc1O` [CBK268045], the viability at 28.5 h, 10 µM came out at 92%.
The same measure, in the same setting: for `COc1ccc2c(c1)CCCN2C(=O)Cn1nc(C)cc1C` [CBK282042] the value was 91.5%; for `CC(=O)Nc1cccc(-c2cnc(N(C)S(C)(=O)=O)c(C(=O)NCc3ccc4c(c3)CCO4)c2)c1` [CBK076609], 99.7%; for `O=C(c1cc(F)c(F)cc1F)N1CCC2(CCN(C(=O)C3COc4ccccc4O3)C2)C1` (stereo not drawn) [CBK131390], 107%.
The same measure, in the same setting: for `Cc1cc(-c2ccc([N+](=O)[O-])cc2)nc2ccc3ccccc3c12` [CBK263253C] the value was 90.3%; for `O=C(CN1CCN(c2ccccc2)CC1)Nc1ccc([N+](=O)[O-])cc1C(=O)c1ccccc1` [CBK265799], 89.6%; for `CCNc1nnc(-c2c(Cl)c(C)nn2C)s1` [CBK288014], 92.5%.
The same measure, in the same setting: for `Cn1cccc1C(=O)Nc1ccccc1N1CCNCC1` [CBK029450T] the value was 95.4%; for `O=C(OCc1ccccc1)N1CCC(C2OCc3cc(-c4cccc5ncccc45)ccc3O2)CC1` (stereo not drawn) [CBK144644], 94.8%.
As to `COc1ccc(-c2c3c(nc4sc(C(=O)N5CCOCC5)c(N)c24)CC(C)(C)CC3=O)cc1` [CBK131884], the viability at 28.5 h, 10 µM stood at 91.7%.
Same read-out and setting: for `COc1ccc(C(O)c2coc3ccc(O)c(CN(C)C)c23)cc1` (stereo not drawn) [CBK263083] the value was 96.4%; for `O=C(O)C(Cc1c[nH]c2ccccc12)NCC1CCCCC1` (stereo not drawn) [CBK287238], 110%.
On the same count and under the same terms, for `CN1N=C(c2ccccc2)CC1=O` [CBK067774] the value was 96.4%; for `Nc1ncc(-c2cc3ccccc3o2)nc1-c1ccc(C=O)cc1` [CBK064126], 91.9%.
Still for that read-out and setting: for `CCCNc1nccnc1-c1cccc(CO)c1` [CBK088897] the value was 91.5%; for `CC(=O)c1cccc(NC(=O)N(CCO)C2CCc3ccccc32)c1` (stereo not drawn) [CBK305517], 93.4%.
`O=C(CC1CC1)NCc1ccc(-c2csnn2)cc1` [CBK149287]: the viability at 28.5 h, 10 µM was 92.8%.
On the same count and under the same terms, for `O=C(O)CCSC1CC(=O)N(c2ccc(F)cc2)C1=O` (stereo not drawn) [CBK276120] the value was 89.9%; for `CCOC(=O)C1=C(C)N(c2ccc(C(=O)O)cc2)C(=O)NC1c1ccc(OC(F)F)c(OC)c1` (stereo not drawn) [CBK297878], 90.1%.
Still for that read-out and setting: for `CCOC(=O)CCCNC(=O)N1CCCC(CO)C1` (stereo not drawn) [CBK156344] the value was 102%; for `Cn1ccnc1C1(O)CCN(C(=O)c2ccccc2F)CC1` [CBK283536], 105%; for `CN(C)c1ccc(-c2ccnc3nc(N)ccc23)cc1` [CBK067640], 85.8%.
The same measure, in the same setting: for `CCOC(=O)c1sc2nc(C(C)N3CCOCC3)[nH]c(=O)c2c1C` (stereo not drawn) [CBK305862] the value was 82.5%; for `Cc1cc(C(=O)NC(Cn2ccnc2)c2ccccc2)cc(=O)[nH]1` (stereo not drawn) [CBK306818], 94%.
As to `O=c1cc2ncc(-c3ccncc3)cn2[nH]1` [CBK011300], the viability at 28.5 h, 10 µM turned out to be 98.3%.
The same measure, in the same setting: the same measure for `CCCc1nnc(SCC(=O)Nc2cccc(C(F)(F)F)c2)n1N` [CBK028004]: 104%; for `Fc1ccc(C2CCc3n[nH]cc3C2)cc1` (stereo not drawn) [CBK015957C]: 92%.
On to `CCCCCC(=O)N[C@H]1CCC[C@H]1C(=O)O` [CBK007807], for which the viability at 28.5 h, 10 µM came to 118%.
The same measure, in the same setting: for `O=C(Nc1cnccn1)c1ccc(Cl)cc1Cl` [CBK056922] the value was 85.5%; for `CCOC(=O)N1CCN(Cc2ccc(O)c(OC)c2)CC1` [CBK261873], 98.5%; for `O=C(c1ccncc1)N1C2CCC1CC(c1ccc(F)cc1)C2` (stereo not drawn) [CBK283763], 94.3%.
Same read-out and setting: the same measure for `CCOCN(C(=O)Cn1c(C(C)O)nc2ccccc21)c1c(C)cccc1CC` (stereo not drawn) [CBK297722]: 87.6%; for `CSc1ccc(CNC(=O)c2ccc(Cl)cc2)s1` [CBK057705]: 89.4%; for `C#CCOc1ccc(/C=C2/SC(=S)N(CCC(=O)O)C2=O)cc1` [CBK265667]: 94.1%.
With `CSCCCNC(=O)c1ccc2nc[nH]c2c1` [CBK153314], the viability at 28.5 h, 10 µM was 116%.
Same read-out and setting: for `Cc1ccc(C(=O)NC2CCCCCC2)cc1C` [CBK083665] the value was 86%.
Regarding `CS(=O)(=O)N1CCCCCC1c1cc(-c2ccc(F)cc2)no1` (stereo not drawn) [CBK284669], the viability at 28.5 h, 10 µM came out at 91.8%.
Take `Nc1ccc2cc3ccc(N)cc3nc2c1` [CBK024003G]: the viability at 28.5 h, 10 µM came to 71%.
Same read-out and setting: for `CN(C)C(=O)CCCN1C(=O)CC2(C1=O)C(=O)N(C)c1ccc(F)cc12` (stereo not drawn) [CBK075380] the value was 103%.
Take `CC(C)NC(=O)N1CCN(Cc2nc(-c3ccoc3)no2)CC1` [CBK306248]: the viability at 28.5 h, 10 µM was 88.2%.

The same data set, now with this note: human, hela cells, % viability, bulk resorufin, single well.
On to `O=C1NC(=S)N(c2ccccc2)C(=O)/C1=C\c1ccc(OCc2ccccc2)c(C(=O)O)c1` [CBK264265], for which the viability at 28.5 h, 10 µM came out at 99.1%.

The values above are taken from paper PMC12040169 (PLOS Biology, 2025).
